Data published in publication PMC11729419, “Thiol-Reactive or Redox-Active: Revising a Repurposing Screen Led to a New Invalidation Pipeline and Identified a True Noncovalent Inhibitor Against Papain-like Protease from SARS-CoV-2” (ACS Pharmacology & Translational Science, 2024).
Counter-ions that a name gives are not always drawn. Like-named read-outs stand apart in the source and are kept apart here. * marks the point of attachment. AMC = Cc1cc(=O)oc2cc(N*)ccc12; Cbz = O=C(OCc1ccccc1)*

Key:
[1] = molecular target: T1, SARS-CoV-2 PLpro-NAB (Severe acute respiratory syndrome coronavirus 2, UniProt P0DTD1); experiment: biochemical; conditions: for Inhibitory activity on retest in 1 mM L-cysteine: 50% inhibition at 20 μM
[2] = molecular target: T1, SARS-CoV-2 PLpro-NAB; format: biochemical
[3] = Table S1, 20 µM, DTT buffer, average (SD)
[4] = Table S1, 20 µM, L-cysteine buffer, average (SD)
[5] = Table S1, DTT buffer, read-out: HP PLpro-NAB SARS-CoV-2 IC50 [µM] triplicates DTT BUFFER
[6] = Table S1, L-cysteine buffer, read-out: HP PLpro-NAB SARS-CoV-2 IC50 [µM] duplicates L-CYS BUFFER
[7] = Table S1, 20 µM, L-cysteine buffer, average (SD), read-out: HP PLpro-NAB SARS-CoV-2 inhibition [%] 20 µM triplicates L-CYS BUFFER
[8] = Table S1, 20 µM, DTT buffer, average (SD), read-out: HC PLpro-NAB SARS-CoV-2 inhibition [%] 20 µM triplicates DTT BUFFER
[9] = hit confirmation, 20 μM, 1 mM DTT buffer, average (SD), 20 μM PR619 = 100%, DMSO = 0%
[10] = hit profiling, 20 μM, 1 mM L-cys buffer, average (SD), 20 μM PR619 = 100%
[11] = read-out: HP PLpro-NAB IC50 [μM] duplicates 1 mM L-cys buffer, hit profiling, 1 mM L-cys buffer
[12] = read-out: HP PLpro-NAB IC50 [μM] triplicates 1 mM DTT buffer, hit profiling, 1 mM DTT buffer

Row | Compound | HC PLpro-NAB SARS-CoV-2 inhibition [%] 20 µM triplicates DTT BUFFER [1, 3] | HP PLpro-NAB SARS-CoV-2 inhibition [%] 20 µM triplicates L-CYS BUFFER [1, 4] | IC50 [1, 5] | IC50 [1, 6] | further results
1 | NC(Cc1cc(O)c(O)cc1O)C(=O)O (racemic) [6-Hydroxy-DL-DOPA] | 81.47 (1.21) % | 4.81 (4.61) % | > 20 µM | > 20 µM | –
2 | Cc1nc2c(=O)n(C)c(=O)nc-2n(C)n1 [3-Methyl Toxoflavin] | 181.38 (6.76) % | -26.71 (3.86) % | 0.074 µM | > 20 µM | –
3 | O=C1C(=O)c2ccccc2-c2ccccc21 [9,10-Phenanthrenequinone] | – | – | – | > 20 µM | inhibition at 20 µM [1, 7]: -40.8%
4 | C[n+]1c2cc(N)ccc2cc2ccc(N)cc21.[Cl-] [Acriflavinium Hydrochloride] | 27.57 (6.10) % | -99.55 (4.20) % | 12.4 µM | > 20 µM | –
5 | CC1(C)CCC2=C(O1)C(=O)c1ccccc1C2=O [Alpha Lapachone] | 146.26 (3.11) % | -6.97 (8.44) % | 4.43 µM | > 20 µM | –
6 | CC1(C)C(=O)N=C2C1=C(O)C(=O)c1ccccc12 [BVT-948] | 154.88 (0.27) % | -16.22 (16.3) % | 0.39 µM | > 20 µM | –
7 | Cn1cccc1/C=C1\C(=O)NC(=O)c2ccccc21 [BYK-204165] | 137.58 (2.88) % | 7.10 (11.9) % | 6.17 µM | > 20 µM | –
8 | CC1(C)CCC2=C(O1)c1ccccc1C(=O)C2=O [Beta-Lapachone] | – | – | 4.71 µM | > 20 µM | inhibition at 20 µM [1, 8]: 175%; inhibition at 20 µM [1, 7]: -37.4%
9 | C[C@H]1COC2=C1C(=O)C(=O)c1c2ccc2c1CCCC2(C)C [Cryptotanshinone] | – | – | – | – | inhibition at 20 µM [1, 8]: 40.7%; inhibition at 20 µM [1, 7]: -71.4%
10 | CC(C)Nc1cccnc1N1CCN(C(=O)c2cc3cc(NS(C)(=O)=O)ccc3[nH]2)CC1 [Delavirdine (mesylate), Delavirdine] | – | – | – | – | IC50 ([1]; HP PLpro-NAB SARS-CoV-2 IC50 [µM] duplicates L-CYS BUFFER): > 20 µM; IC50 ([1]; HP PLpro-NAB SARS-CoV-2 IC50 [µM] triplicates DTT BUFFER): > 20 µM
11 | Cc1cccc2c3c(ccc12)C1=C(C(=O)C3=O)[C@@H](C)CO1 [Dihydrotanshinone I] | – | – | 0.92 µM | > 20 µM | inhibition at 20 µM [1, 8]: 80.7%; inhibition at 20 µM [1, 7]: -176%
12 | COc1cc([C@@H]2c3cc4c(cc3[C@@H](O[C@@H]3O[C@@H]5CO[C@@H](C)O[C@H]5[C@H](O)[C@H]3O)[C@H]3COC(=O)[C@H]23)OCO4)cc(OC)c1O [Etoposide] | – | – | > 20 µM | > 20 µM | –
13 | Cc1cc(-c2ccc(/N=N/c3ccc4c(S(=O)(=O)O)cc(S(=O)(=O)O)c(N)c4c3O)c(C)c2)ccc1/N=N/c1ccc2c(S(=O)(=O)O)cc(S(=O)(=O)O)c(N)c2c1O [Evans Blue] | – | – | 8.68 µM | > 20 µM | inhibition at 20 µM [1, 8]: 126%; inhibition at 20 µM [1, 7]: -67.8%
14 | Oc1c(Cl)cc(Cl)c(Cl)c1Cc1c(O)c(Cl)cc(Cl)c1Cl [Hexachlorophene] | – | – | – | – | IC50 ([1]; HP PLpro-NAB SARS-CoV-2 IC50 [µM] duplicates L-CYS BUFFER, Table S1, L-cysteine buffer): > 20 µM; IC50 ([1]; HP PLpro-NAB SARS-CoV-2 IC50 [µM] triplicates DTT BUFFER, Table S1, DTT buffer): > 20 µM; inhibition at 20 µM ([1]; read-out: HC PLpro-NAB SARS-CoV-2 inhibition [%] 20 µM triplicates DTT BUFFER): 109%; inhibition at 20 µM ([1]; read-out: HP PLpro-NAB SARS-CoV-2 inhibition [%] 20 µM triplicates L-CYS BUFFER): -18.3%
15 | CC[n+]1c(-c2ccccc2)c2cc(N)ccc2c2ccc(N)cc21 [Homidium Bromide] | – | – | 13.7 µM | > 20 µM | inhibition at 20 µM [1, 8]: 149%; inhibition at 20 µM [1, 7]: 18.3%
16 | O=C1C=CC(=O)c2c(O)cccc21 [Juglone] | – | – | > 20 µM | > 20 µM | inhibition at 20 µM [1, 8]: 83.7%; inhibition at 20 µM [1, 7]: -14.8%
17 | CCOC(=O)C1=C(C)N=c2sc(=Cc3ccc(OCC(=O)O)cc3)c(=O)n2C1c1ccc(SC)cc1 (stereo not drawn) [ML120] | 82.78 (2.58) % | -56.07 (10.54) % | 3.14 µM | > 20 µM | –

Row | Compound | HC PLpro-NAB SARS-CoV-2 inhibition [%] 20 µM triplicates DTT BUFFER [1, 3] | HP PLpro-NAB SARS-CoV-2 inhibition [%] 20 µM triplicates L-CYS BUFFER [1, 4] | IC50 [1, 5] | IC50 [1, 6] | further results
18 | COc1cccc2c(NCc3ccccc3)nc(-n3c(N)nc4ccccc43)nc12 [ML240] | 93.76 (13.43) % | -11.93 (4.14) % | > 20 µM | > 20 µM | –
19 | Nc1ccc(O)c2ncccc12 [PD119507] | 186.40 (4.35) % | -16.42 (5.8) % | 0.065 µM | > 20 µM | –
20 | N#CSc1cc(SC#N)c(N)nc1N [PR-619] | – | – | – | – | Inhibition in L-cysteine buffer versus DTT buffer (dose-response) ([1]; 1 mM L-cysteine vs 1 mM DTT): did not show variations in inhibition potency or thermal stability; Inhibitory activity on retest in 1 mM L-cysteine [1]: retained their inhibitory activity; HC PLpro-NAB inhibition [%] 20 μM triplicates 1 mM DTT buffer [1, 9]: 101.31 (1.54) %; HP PLpro-NAB inhibition [%] 20 μM triplicates 1 mM L-cys buffer [1, 10]: 106.60 (1.05) %; IC50 [1, 11]: 3.7 µM; IC50 [1, 12]: 1.39 µM
21 | Cc1cc(-c2ccc(/C=C3/SC(=Nc4ccc(Cl)c(C(=O)O)c4)NC3=O)o2)c([N+](=O)[O-])cc1C [PT 1] | 87.07 (2.59) % | -36.09 (5.10) % | 9.32 µM | > 20 µM | –
22 | CC[N+](C)(CC)CCC[n+]1c(-c2ccccc2)c2cc(N)ccc2c2ccc(N)cc21.[I-].[I-] [Propidium-Iodide] | 135.55 (3.03) % | 14.90 (7.41) % | 0.24 µM | > 20 µM | –
23 | O=c1ccc2[n+]([O-])c3ccc(O)cc3oc-2c1 [Resazurin (sodium salt), Resazurin] | – | – | > 20 µM | > 20 µM | –
24 | O=C(Nc1ccccc1-c1cn2c(CN3CCNCC3)csc2n1)c1cnc2ccccc2n1 [SRT 1720] | – | – | – | – | Inhibitory activity on retest in 1 mM L-cysteine [1]: retained their inhibitory activity; HC PLpro-NAB inhibition [%] 20 μM triplicates 1 mM DTT buffer [1, 9]: 109.60 (16.57) %; HP PLpro-NAB inhibition [%] 20 μM triplicates 1 mM L-cys buffer [1, 10]: 169.11 (0.11) %; IC50 [1, 11]: 0.82 µM; IC50 [1, 12]: > 20 µM
25 | CN(C)CCNc1nc2cc(O)ccc2c2c1C(=O)c1ccccc1-2.Cl.Cl [TAS-103 (dihydrochloride)] | 154.91 (1.47) % | 17.75 (9.12) % | 5.94 µM | > 20 µM | –
26 | COCCn1c2c([n+](Cc3cnccn3)c1C)C(=O)c1ccccc1C2=O [YM-155] | – | – | 17.9 µM | > 20 µM | inhibition at 20 µM [1, 8]: 139%; inhibition at 20 µM [1, 7]: -5.61%
27 | O=c1c(O)cccc2cc(O)c(O)c(O)c12 [purpurogallin] | – | – | – | – | IC50 ([1]; HP PLpro-NAB IC50 [μM] duplicates 1 mM L-cys buffer, hit profiling, 1 mM L-cys buffer): 1.03 µM; IC50 ([1]; HP PLpro-NAB IC50 [μM] triplicates 1 mM DTT buffer, hit profiling, 1 mM DTT buffer): > 20 µM
28 | O=C(O)c1cc(O)c2c(c1)[C@H]([C@H]1c3cc(C(=O)O)cc(O)c3C(=O)c3c(O[C@@H]4O[C@H](CO)[C@@H](O)[C@H](O)[C@H]4O)cccc31)c1cccc(O[C@@H]3O[C@H](CO)[C@@H](O)[C@H](O)[C@H]3O)c1C2=O [sennoside A] | – | – | – | – | inhibition at 20 µM ([1]; hit confirmation, 20 μM, 1 mM DTT buffer, average (SD), 20 μM PR619 = 100%, DMSO = 0%, read-out: HC PLpro-NAB inhibition [%] 20 μM triplicates 1 mM DTT buffer): 160%; inhibition at 20 µM ([1]; hit profiling, 20 μM, 1 mM L-cys buffer, average (SD), 20 μM PR619 = 100%, read-out: HP PLpro-NAB inhibition [%] 20 μM triplicates 1 mM L-cys buffer): 149%
29 | Bacitracin [Bacitracin (Zinc)] | 67.28 (8.42) % | 6.99 (8.69) % | 10.2 µM | > 20 µM | –
30 | Cbz-LRGG-{AMC} | – | – | – | – | Km [2]: 45.2 µM; Vmax [2]: 173 041 /min
31 | Chicago-Sky-Blue-6b | 51.02 (1.78) % | 3.64 (5.37) % | > 20 µM | > 20 µM | –
32 | Ro-08-2750 | 119.29 (1.83) % | -33.99 (8.82) % | 0.4 µM | > 20 µM | –
33 | Ryuvidine | 159.90 (1.27) % | -33.69 (4.70) % | 0.26 µM | > 20 µM | –
34 | SF1670 | 183.62 (4.27) % | -32.73 (4.18) % | 0.25 µM | > 20 µM | –
